We go through 10 compounds from ChEMBL document CHEMBL1201862, “PubChem BioAssay data set” (2004).

The structures appear in SMILES notation.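 All cell lines were grown in 96-well plates and treated with compound for 48 hours. GI50: concentration for 50% inhibition of growth.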 Active and inactive are the calls of the source. No stated cut-off is given here; in the data, active = GI50 up to about 1.1 µM and inactive = higher.

Some test systems named below: MDA-MB-435; COLO 205; M14; NCI/ADR-RES; OVCAR-4; SF-295; ACHN; IGROV-1; HCT-15; Hs-578T; MDA-MB-231; MOLT-4; NCI-H522; 786-0; SR; UACC-62; NCI-H226; SNB-75; Malme-3M; SF-539.
Common to all, as to test: NCI anticancer screen, dose series, 48 h

Regarding `Nc1nc(F)nc2c1ncn2C1OC(COP(=O)(O)O)C(O)C1O` (stereo not given), the GI50 in the test on MDA-MB-435 was 11.9 µM (inactive); with COLO 205 it was 95.1 µM (inactive); in the test with M14, 6.4 µM (inactive); with NCI/ADR-RES it was 4.11 µM (inactive); in the test on OVCAR-4, 212 µM (inactive); in the test on SF-295, 309 µM (inactive). Also, the GI50 in the test on ACHN is 32.1 µM (inactive); in the test with IGROV-1 it was 286 µM (inactive); in the test on HCT-15, 175 µM; with Hs-578T, 81.5 µM (inactive); in the test on MDA-MB-231, 80.2 µM (inactive); in the test with MOLT-4, 4.38 µM (inactive). Further, the GI50 is 63.1 µM (inactive) in the test on NCI-H522; 39.5 µM (inactive) with 786-0; 21.8 µM (inactive) with SR; 56.2 µM (inactive) in the test with UACC-62; 98.2 µM (inactive) with NCI-H226; 188 µM (inactive) in the test on SNB-75. For the same compound, the GI50 in the test on Malme-3M was 23.3 µM (inactive); with SF-539, 146 µM (inactive).

With `CNC1C(=O)C(C)C(O)(C(CC(C)C(O)/C=C/C=C/CNC(=O)C(C)(C)C(O)\C(C)=C/C=C\C=C\Cc2cnc(C)o2)OC)C12C(=O)OC2C.CNC1C(=O)C(C)C(O)(C(CC(C)C(O)/C=C/C=C/CNC(=O)C(C)(C)C(O)\C(C)=C/C=C\C=C\Cc2cnc(C)o2)OC)C12C(=O)OC2COC` (stereo not given), the GI50 is 16 µM (inactive) with MDA-MB-435; 0.778 µM (active) in the test on COLO 205; 7.46 µM (inactive) in the test with M14; 15.9 µM (inactive) in the test with NCI/ADR-RES; 0.345 µM (active) with OVCAR-4; 0.528 µM (active) with SF-295. In addition, the GI50 was 3.3 µM (inactive) in the test with ACHN; 0.931 µM (active) in the test with IGROV-1; 21 µM in the test on HCT-15; 12.4 µM (inactive) in the test on Hs-578T; 26.9 µM (inactive) in the test with MDA-MB-231; 8.85 µM (inactive) in the test with MOLT-4. Moreover, the GI50 is 0.565 µM (active) in the test with NCI-H522; 18.5 µM (inactive) with 786-0; 15.1 µM (inactive) in the test with SR; 13.3 µM (inactive) with UACC-62; 0.668 µM (active) in the test with NCI-H226; 0.942 µM (active) in the test on SNB-75. Moreover, the GI50 was 9.04 µM (inactive) in the test on Malme-3M and 23.2 µM (inactive) in the test on SF-539.

Take `Clc1ccc(CCN(CCc2ccc(Cl)c(Cl)c2)CCN2CCCC2)cc1Cl`: the GI50 is 1.44 µM (inactive) with MDA-MB-435; 1.89 µM (inactive) in the test on COLO 205; 1.67 µM (inactive) with M14; 1.75 µM (inactive) in the test with NCI/ADR-RES; 1.85 µM (inactive) in the test with OVCAR-4; 1.78 µM (inactive) in the test with SF-295. The GI50 is 1.74 µM (inactive) in the test with ACHN; 1.58 µM (inactive) in the test with IGROV-1; 1.79 µM in the test on HCT-15; 1.9 µM (inactive) with Hs-578T; 1.56 µM (inactive) in the test on MDA-MB-231; 1.79 µM (inactive) in the test on MOLT-4. Moreover, the GI50 is 1.64 µM (inactive) with NCI-H522; 1.76 µM (inactive) in the test with 786-0; 2.01 µM (inactive) in the test on SR; 1.63 µM (inactive) in the test with UACC-62; 1.67 µM (inactive) in the test on NCI-H226; 2.23 µM (inactive) with SNB-75. Further, the figures for the GI50 in the test with Malme-3M and with SF-539 were 1.78 µM (inactive) and 1.8 µM (inactive), respectively.

For `CCCCCCN(C(=O)Oc1ccccc1)C(C#N)c1ccccc1` (stereo not given), the GI50 in the test on MDA-MB-435, in the test on COLO 205, in the test with M14, in the test on NCI/ADR-RES, in the test with OVCAR-4 and in the test with SF-295 was > 100 µM (inactive) each time. For the same compound, the GI50 is > 100 µM (inactive) in the test on ACHN; > 100 µM (inactive) in the test with IGROV-1; over 100 µM in the test with HCT-15; > 100 µM (inactive) with Hs-578T; > 100 µM (inactive) in the test on MDA-MB-231; > 100 µM (inactive) in the test with MOLT-4. Besides, the GI50 in the test with NCI-H522, in the test with 786-0, in the test on SR, in the test on UACC-62, in the test on NCI-H226 and in the test on SNB-75 was > 100 µM (inactive) each time. In addition, the GI50 in the test with Malme-3M and in the test on SF-539 was > 100 µM (inactive) each time.

Turning to `CN(CCCNC(=O)c1cn(C)c2c1ccc1cc(Cl)c(Cl)cc12)CCCNC(=O)c1cn(C)c2c1ccc1cc(Cl)c(Cl)cc12`, the GI50 in the test with MDA-MB-435 is 6.17 µM (inactive); in the test on COLO 205 it was 3.18 µM (inactive); in the test on M14 it was 10.7 µM (inactive); in the test with NCI/ADR-RES, 15.2 µM (inactive); with OVCAR-4, 0.789 µM (active); in the test with SF-295, 17.1 µM (inactive). The GI50 with ACHN was 13.1 µM (inactive); with IGROV-1, 7.62 µM (inactive); with HCT-15, 11.9 µM; with Hs-578T, 8.73 µM (inactive); in the test on MDA-MB-231, 15.4 µM (inactive); in the test on MOLT-4, 10.4 µM (inactive). Besides, the GI50 was 14.6 µM (inactive) in the test with NCI-H522; 6.27 µM (inactive) in the test on 786-0; 4.57 µM (inactive) with SR; 16.1 µM (inactive) with UACC-62; 22.1 µM (inactive) in the test on NCI-H226; 10.8 µM (inactive) with SNB-75. The GI50 in the test with Malme-3M is 17.1 µM (inactive); in the test on SF-539 it was 15.7 µM (inactive).

On to `Fc1ccccc1/N=c1\oc2ccc(Br)cc2cc1-c1nc2ccccc2[nH]1`, for which the GI50 with MDA-MB-435 is 23.1 µM (inactive); in the test on COLO 205, 35.6 µM (inactive); in the test with M14 it was 11.2 µM (inactive); with NCI/ADR-RES, 10 µM (inactive); in the test with OVCAR-4 it was 5.96 µM (inactive); in the test with SF-295 it was 5.48 µM (inactive). In addition, the GI50 with ACHN is 6.9 µM (inactive); in the test on IGROV-1 it was 8.95 µM (inactive); in the test on HCT-15 it was 30.1 µM; in the test with Hs-578T, 0.485 µM (active); with MDA-MB-231, 6.7 µM (inactive); in the test with MOLT-4 it was > 30.8 µM (inactive). Besides, the GI50 in the test on NCI-H522 is 1.75 µM (inactive); with 786-0, 3.18 µM (inactive); with SR it was > 25.6 µM (inactive); with UACC-62 it was 12.8 µM (inactive); with NCI-H226, 4.26 µM (inactive); with SNB-75, 1.84 µM (inactive). Also, the GI50 with Malme-3M is 2.32 µM (inactive); in the test with SF-539, 1.87 µM (inactive).

As to `O=C(Nc1nnc(-c2ccc(Cl)cc2)o1)C(SC(=S)N1CCCCC1)c1ccccc1` (stereo not given), the GI50 was 21.2 µM (inactive) with MDA-MB-435; 24.4 µM (inactive) in the test on COLO 205; 13.2 µM (inactive) in the test with M14; 4.84 µM (inactive) with NCI/ADR-RES; 22 µM (inactive) in the test with OVCAR-4; 12 µM (inactive) in the test with SF-295. Besides, the GI50 in the test on ACHN was 15.7 µM (inactive); with IGROV-1 it was 9.38 µM (inactive); in the test with HCT-15 it was 7.16 µM; in the test on Hs-578T it was 26.2 µM (inactive); in the test with MDA-MB-231 it was 19.4 µM (inactive); with MOLT-4, 1.31 µM (inactive). The GI50 in the test on NCI-H522 was 17.6 µM (inactive); in the test with 786-0 it was 14.8 µM (inactive); in the test with SR, 3.91 µM (inactive); in the test on UACC-62, 14.2 µM (inactive); in the test on NCI-H226 it was 32.7 µM (inactive); with SNB-75, 39.1 µM (inactive). The GI50 in the test with Malme-3M is 3.11 µM (inactive); in the test with SF-539, 30 µM (inactive).

As to `ON[C@@H]1C=C[C@H](n2cnc3c(NC4CC4)ncnc32)C1`, the GI50 in the test on MDA-MB-435, in the test with COLO 205, in the test on M14, in the test with NCI/ADR-RES, with OVCAR-4 and in the test with SF-295 was > 100 µM (inactive) in each case. Also, the GI50 in the test on ACHN was > 100 µM (inactive); with IGROV-1 it was 94.4 µM (inactive); with HCT-15 it was over 100 µM; in the test on Hs-578T, > 100 µM (inactive); with MDA-MB-231, > 100 µM (inactive); in the test with MOLT-4, > 100 µM (inactive). For the same compound, the GI50 was > 100 µM (inactive) with NCI-H522; > 100 µM (inactive) in the test with 786-0; 88.3 µM (inactive) with SR; > 100 µM (inactive) in the test with UACC-62; > 100 µM (inactive) in the test with NCI-H226; > 100 µM (inactive) in the test with SNB-75. Besides, the GI50 in the test with Malme-3M and with SF-539 was > 100 µM (inactive) in each case.

Consider `Cc1ccc(NC(=S)C#N)c(C)c1`, for which the GI50 with MDA-MB-435 is 56 µM (inactive); in the test on COLO 205, > 84.1 µM (inactive); in the test with M14, 97.3 µM (inactive); in the test with NCI/ADR-RES it was 75.7 µM (inactive); in the test on OVCAR-4, > 64.1 µM (inactive); in the test with SF-295, > 100 µM (inactive). Moreover, the GI50 was > 100 µM (inactive) in the test on ACHN; > 63 µM (inactive) with IGROV-1; over 92.7 µM in the test on HCT-15; > 100 µM (inactive) in the test on Hs-578T; > 100 µM (inactive) in the test with MDA-MB-231; 28.8 µM (inactive) with MOLT-4. For the same compound, the GI50 was 46.7 µM (inactive) in the test with NCI-H522; > 100 µM (inactive) with 786-0; 33.7 µM (inactive) with SR; 97.3 µM (inactive) with UACC-62; > 84.3 µM (inactive) in the test on NCI-H226; > 82.4 µM (inactive) with SNB-75. Also, the GI50 was 44.2 µM (inactive) in the test with Malme-3M and > 100 µM (inactive) in the test on SF-539.

Consider `O=c1/c(=C/c2ccc([N+](=O)[O-])o2)sc2n1[C@@H](c1ccc3c(c1)OCO3)C=C(c1cc(F)c(Cl)cc1Cl)N=2`, for which the GI50 is 13.4 µM (inactive) in the test on MDA-MB-435; 18.7 µM (inactive) with COLO 205; 13.9 µM (inactive) in the test on M14; 34.4 µM (inactive) with NCI/ADR-RES; 15.7 µM (inactive) in the test with OVCAR-4; 31.2 µM (inactive) in the test with SF-295. The GI50 with ACHN was 16.1 µM (inactive); in the test on IGROV-1, 16.3 µM (inactive); in the test on HCT-15, 9.59 µM; with Hs-578T it was 61 µM (inactive); in the test on MDA-MB-231 it was 23 µM (inactive); in the test on MOLT-4, 8.91 µM (inactive). In addition, the GI50 in the test with NCI-H522 is 25.8 µM (inactive); in the test with 786-0 it was 9.51 µM (inactive); in the test on SR, 3.33 µM (inactive); with UACC-62, 15.9 µM (inactive); with NCI-H226, 46.7 µM (inactive); in the test with SNB-75, 17.3 µM (inactive). For the same compound, the values for the GI50 in the test on Malme-3M and in the test with SF-539 were 19.7 µM (inactive) and 23.8 µM (inactive), respectively.
